System: T1, SpSL (two-domain laccase of Streptomyces puniceus)
T1 construct: TAT signal peptide (1-34) removed: forward primer GGATCC-GAGAAGCCGCCCCG starts the insert at EKPP; pQE-30 (His-tag, cleavage not mentioned), E. coli M15 (pREP4), HisTrap; precursor 344 residues; 110 kDa native homotrimer
Assay: oxidation kinetics, nonlinear regression
Format: biochemical
Conditions: apparent constant, co-substrate O2
From the text: oxidation kinetics, nonlinear regression on SpSL (two-domain laccase of Streptomyces puniceus)

[1] = pH of kinetics not printed (alkaline optimum)

Row | Km [1] | Km (pH of kinetics not printed (routine ABTS assay: 20 mM Na-acetate pH 5.0, 420 nm)) | SMILES
1 | 1150 ± 100 µM |  | COc1cccc(OC)c1O [2,6-Dimethoxyphenol]
2 | 5700 ± 250 µM |  | COc1ccccc1O [2-Methoxyphenol]
3 |  | 370 ± 21 µM | CCn1c(=NN=c2sc3cc(S(=O)(=O)O)ccc3n2CC)sc2cc(S(=O)(=O)O)ccc21 [ABTS]

Source: publication PMC7500650, “Transformation of low molecular compounds and soil humic acid by two domain laccase of Streptomyces puniceus in the presence of ferulic and caffeic acids” (PLoS ONE, 2020)
